Values joined by “and” are separate entries in the source; they are usually repeats but may differ in a detail not shown here. Identical values can stand only once.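 Exposure lasted 48 hours, with cells grown in 96-well plates and compounds tested at five concentrations. At the GI50, growth is halved. The concentration for full growth arrest is given as TGI.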
Key:
Test in all cases: inhibition of tumour cell growth, NCI panel, 48 h
[1] = tested on: RXF 393 renal
[2] = tested on: OVCAR-5 ovarian
[3] = tested on: CAKI-1 renal
[4] = tested on: SW-620 colon
[5] = tested on: HL-60(TB) leukemia
[6] = tested on: SK-MEL-5 melanoma
[7] = tested on: MALME-3M melanoma
[8] = tested on: IGROV1 ovarian
[9] = tested on: OVCAR-8 ovarian
[10] = tested on: U251 CNS

With `CCCCCCCC/C=C/CCCCCCCC1=NC(C)(C)CN1C(C)(C)CO` the GI50 [1] was 2.17 µM, the TGI [1] was 3.99 µM and the GI50 [2] was 2.15 µM. The TGI [2] was 5.09 µM, the GI50 [3] was 1.39 µM and the TGI [3] was 2.88 µM. The GI50 [4] was 1.63 µM, the TGI [4] was 3.11 µM and the GI50 [5] was 2.23 µM. For the same molecule, the TGI [5] was 5.5 µM, the GI50 [6] was 1.75 µM and the TGI [6] was 3.13 µM.
Molecule `CCOc1c(Br)cc(Br)cc1C=C(C#N)C#N` has a TGI [1] of over 10 µM, a TGI [7] of over 10 µM and a TGI [4] of over 10 µM. It also gave a TGI [8] of over 10 µM, a TGI [9] of over 10 µM and a TGI [5] of 1.19 µM. The TGI [10] was over 10 µM and the TGI [6] was over 10 µM.
`COc1cc(C2CC(c3ccc(Nc4nc(NCCO)nc(NCCO)n4)cc3)=NN2c2cc(Cl)cc(Cl)c2)cc(OC)c1OC` (configuration not stated) showed a GI50 [1] of 0.568 µM, a TGI [1] of 2.34 µM and a GI50 [2] of 2.15 µM. The TGI [2] was 7.56 µM, the GI50 [7] was 1.96 µM and the TGI [7] was 3.84 µM. It also gave a GI50 [4] of 1.8 µM, a TGI [4] of 3.79 µM and a GI50 [8] of 2.02 µM. It also gave a TGI [8] of 4.8 µM, a GI50 [9] of 2.01 µM and a TGI [9] of 5.86 µM. The GI50 [5] was 1.5 µM, the TGI [5] was 3.43 µM and the GI50 [10] was 1.25 µM. It also gave a TGI [10] of 2.81 µM, a GI50 [6] of 1.7 µM and a TGI [6] of 3.34 µM.
With `CC(C)Cc1cnc(CC(C)C)c(=O)[nH]1` the TGI [1] was over 100 µM, the TGI [2] was over 100 µM and the TGI [3] was over 100 µM. The TGI [4] was over 100 µM, the TGI [8] was over 100 µM and the TGI [9] was over 100 µM. It also gave a TGI [10] of over 100 µM and a TGI [6] of over 100 µM.
Work on `COc1ccc(-n2c(=S)sc3c(Cl)nc(C)nc32)c(OC)c1` yielded a GI50 [1] of 2 µM, a TGI [1] of 4.07 µM and a GI50 [2] of 6.15 µM. It also gave a TGI [2] of 20.9 µM, a GI50 [7] of 2.23 µM and a TGI [7] of 6.23 µM. The GI50 [3] was 6.16 µM, the TGI [3] was 19.3 µM and the GI50 [4] was 2.57 µM. It also gave a TGI [4] of 5.44 µM, a GI50 [8] of 1.93 µM and a TGI [8] of 3.99 µM. For the same molecule, the GI50 [9] was 2.66 µM, the TGI [9] was 7.4 µM and the GI50 [5] was 1.43 µM. It also gave a TGI [5] of 5.83 µM, a GI50 [10] of 1.91 µM and a TGI [10] of 3.65 µM.
For `OCC(O)C(O)C(O)C(/C=N\Nc1ncnc2c(Br)cc(Br)cc12)=N/Nc1ncnc2c(Br)cc(Br)cc12` (configuration not stated), the GI50 [2] was 5.83 µM and 41.2 µM, the TGI [2] was 46.1 µM and > 100 µM and the TGI [7] was 14.4 µM and > 100 µM. For the same molecule, the TGI [3] was 26.7 µM and > 100 µM, the TGI [4] was over 100 µM and the TGI [8] was 10.1 µM and > 100 µM. For the same molecule, the GI50 [9] was 11.7 µM and 3.76 µM, the TGI [9] was 28.3 µM and > 100 µM and the GI50 [5] was 6.47 µM and 2.8 µM. The TGI [5] was over 100 µM and the TGI [6] was 16.4 µM and 18.7 µM.
For `O=C1c2cccc3cccc(c23)C(=O)N1CCCCCN1CCN(CCN=c2cc3n(-c4ccc(Cl)cc4)c4ccccc4nc-3cc2Nc2ccc(Cl)cc2)CC1`, the GI50 [1] was 11.2 µM, the TGI [1] was over 50 µM and the GI50 [2] was 10.2 µM. For the same molecule, the TGI [2] was 20.1 µM, the GI50 [7] was 20.8 µM and the TGI [7] was over 50 µM. It also gave a GI50 [3] of 6.33 µM, a TGI [3] of 20.5 µM and a GI50 [4] of 15.3 µM. The TGI [4] was over 50 µM, the GI50 [9] was 12 µM and the TGI [9] was over 50 µM. The GI50 [5] was 6.91 µM, the TGI [5] was 21.3 µM and the GI50 [10] was 14.2 µM. The TGI [10] was 40.3 µM, the GI50 [6] was 7.46 µM and the TGI [6] was 18.1 µM.
Work on `O=C1CC23CCCCCCCCCCC2(C1)CC(=O)C3` (configuration not stated) yielded a TGI [1] of 89.2 µM, a TGI [2] of 72.1 µM and a TGI [7] of 76.1 µM. For the same molecule, the TGI [4] was over 100 µM, the TGI [8] was 83 µM and the TGI [9] was over 100 µM. It also gave a TGI [5] of 39.2 µM, a TGI [10] of 75.6 µM and a TGI [6] of 32.4 µM.

Source: PubChem BioAssay (NCI)
